Results from patent publication US12187754B2, “LpxC inhibitors and uses thereof” (Blacksmith Medicines, Inc., priority 2021, dated 2025).

How the values were obtained:
K. pneumoniae BAA-1705 = assay: Mouse urinary tract infection model, K. pneumoniae BAA-1705; assay type: in vivo; conditions: for bacterial burden in urine relative to vehicle-treated controls and the ciprofloxacin control: except for the 30 mg/kg IV Compound A experiment; for Bladder Terminal Burden / Kidney Terminal Burden / Urine Terminal Burden: mice, 96 hours
Method: (§1) Compound A and its prodrugs as disclosed herein were tested in an in vivo mouse model for Urinary Tract Infection. Briefly, mice were infected with E. coli UTI 89 to cause a UTI infection and were treated with compounds disclosed herein.
(§2) Five days prior to infection, C3H/HeNR female mice were preconditioned with drinking water containing 5% glucose. Mice were rendered unconscious using parenteral anaesthesia (ketamine/medetomidine) then 0.05 mL of a bacterial suspension of E. coli UTI 89 (1.2×10^9 CFU/mL (6.2×10^7 CFU/mouse) was administered transurethrally into the bladder to cause an ascending UTI infection.
[…]; […]; […]; […] for 3 days (six doses total). Ciprofloxacin was given as a control at 10 mg/kg/dose IV every 12 hours. Compound A was formulated in 10% DMSO, 5% Cremophor, 85% SFI; the remaining compounds used a sterile phosphate-buffered saline (PBS) formulation. Each group was comprised of five mice each.
(§3) Urine, bladder, and kidney were harvested at 24 h (pre-treatment group only) and 96 h post infection and quantitatively cultured.
The experiment was repeated using K. pneumoniae BAA-1705 (MDR; MIC90 strain). Table 5 and FIG. 2 summarize the results, showing the average terminal burden of K. pneumoniae BAA-1705 in urine, bladder, and kidney at the conclusion of the study (96 hours).

E. coli UTI 89 = assay: Mouse urinary tract infection model, E. coli UTI 89; assay type: in vivo; conditions: for Bladder Terminal Burden / Kidney Terminal Burden / Urine Terminal Burden: mice, 96 h post infection; for bacterial burden in urine relative to vehicle-treated controls / bacterial burden in bladder relative to vehicle-treated controls / bacterial burden in kidney relative to vehicle-treated control / efficacy on bacterial burden in kidney: E. coli UTI 89, mice; for bacterial burden in bladder relative to vehicle-treated controls / bacterial burden in kidney relative to vehicle-treated control: IV administration; for efficacy on bacterial burden in kidney: PO administration
Method: as §1, §2
IV or PO treatment was started 24 h post infection with 3, 10, 15 mg/kg/dose IV Compound A; 3, 10, 15.30 mg/kg/dose IV Compound 1; 3, and 10 mg/kg/dose IV Compound 2; and 30 mg/kg/dose oral of either Compound 1 or 2 administered every 12 hours for 3 days (six doses total). Ciprofloxacin was given as a control at 10 mg/kg/dose IV every 12 hours. Compound A was formulated in 10% DMSO, 5% Cremophor, 85% SFI; the remaining compounds used a sterile phosphate-buffered saline (PBS) formulation. Each group was comprised of five mice each.
as §3

Thermal solubility = assay type: physicochemical; conditions: aqueous buffer, thermodynamic from solid; 100 mM potassium phosphate buffer pH 7.4, 24 h, 25° C.
Method: Solubility of the compounds was assessed in 100 mM potassium phosphate buffer at pH 7.4 after 24 hours at room temperature.
Accurately weighed K2HPO4 (2.79 g) and KH2PO4 (0.54 g) were dissolved in 90 mL of Milli-Q water and mixed well. Volume was made upto 200 mL with Milli-Q water and mixed well. The prepared phosphate buffer was stored at 2-8° C. and used within a month.
Approximately 30 mg of test compound was added to approximately 1 mL of the potassium phosphate buffer, pH 7.4. If the visual inspection indicated precipitation, no further compound is added. If the visual inspection indicated a clear solution, further increments of compound were added until the solution was no longer clear.
Test compounds and assay controls (caffeine) were further incubated for 24 h at 25° C. temperature on a thermomixer at a shaking speed of 1200 rpm. After incubation, the samples (200 μL) were transferred to a filtration plate to which a plate was attached at bottom for collecting the filtrate. The plate was centrifuged at 4000 rpm for 2 min and the filtrate was collected in the attached bottom plate. The filtrates were diluted using filtered buffer based on the initial amount of compound added. All samples were analysed by HPLC-UV method against 8 point calibration curve with concentrations ranging from 2.5 μg/mL to 1000 μg/mL.

Kinetic solubility = assay type: physicochemical
Method: Solubility of the compounds was assessed in 10 mM phosphate-buffered saline (PBS) at pH 7 at final concentrations of 20, 40, and 50 mg/mL of test compound.

Pharmacokinetics in rats = assay type: in vivo, Male Sprague-Dawley (SD) rats; conditions: male, Sprague-Dawley, plasma, intravenous, oral; after 4 h, all routes and doses tested in rat; read-out: plasma concentration of prodrug Compound 1
Method: (§4) Stock solutions of test compounds were prepared at 2.5 or 5.0 mg/mL in 10 mM PBS. Male Sprague-Dawley (SD) rats (n=3 per group) or beagle dogs (n=3 per group) were administered test compound by either IV or oral administration. For IV-administered compounds, a three hour infusion was used. For PO-administered compounds, a single bolus dose was used.
(§5) After initiation of IV dosing (or after PO bolus dosing), whole blood samples were collected at 1, 3, 3.5, 4, 6, 8, and 24 hour timepoints. All samples were collected into Plasma K2-EDTA collection tubes and processed to separate plasma from red blood cells.
(§6) Liquid chromatography-tandem mass spectrometry (LC-MS/MS) was used to analyze all plasma samples, with both the test compound and the active agent Compound A being quantified. The lower limit of quantitation (LLOQ) for both rats and dogs was 1 ng/mL.

Pharmacokinetics in dogs = assay type: in vivo; conditions: beagle, plasma, intravenous, oral; after 6 h, all routes and doses tested in dog; read-out: plasma concentration of prodrug Compound 1
Method: as §4, §5, §6

[1] = 3 mg/kg/dose IV every 12 hours for 3 days
[2] = 10 mg/kg/dose IV every 12 hours for 3 days
[3] = 30 mg/kg/dose PO every 12 hours for 3 days
[4] = 20, 40, and 50 mg/mL in 10 mM PBS pH 7
[5] = 15 mg/kg/dose IV every 12 hours for 3 days

Structure (SMILES) | bacterial burden in kidney relative to vehicle-treated controls and the ciprofloxacin control (K. pneumoniae BAA-1705; K. pneumoniae BAA-1705, mice) | bacterial burden in urine relative to vehicle-treated controls and the ciprofloxacin control (K. pneumoniae BAA-1705; K. pneumoniae BAA-1705, mice) | Bladder Terminal Burden (E. coli UTI 89; [1]) | Kidney Terminal Burden (E. coli UTI 89; [1]) | Urine Terminal Burden (E. coli UTI 89; [1]) | Bladder Terminal Burden (E. coli UTI 89; [2]) | Kidney Terminal Burden (E. coli UTI 89; [2]) | Urine Terminal Burden (E. coli UTI 89; [2]) | Bladder Terminal Burden (E. coli UTI 89; [3]) | Kidney Terminal Burden (E. coli UTI 89; [3]) | Urine Terminal Burden (E. coli UTI 89; [3]) | bacterial burden in urine relative to vehicle-treated controls (E. coli UTI 89) | bacterial burden in bladder relative to vehicle-treated controls (E. coli UTI 89) | bacterial burden in kidney relative to vehicle-treated control (E. coli UTI 89) | efficacy on bacterial burden in kidney (E. coli UTI 89) | solubility at 24 h (Thermal solubility) [µg/mL] | appearance after vortex mixing (Kinetic solubility; [4]) | also measured
N#CC1CN(C[C@@H](Cc2nc[nH]c(=O)c2OCOP(=O)(O)O)c2ccc(C#Cc3ccc(CN4CCOCC4)cc3)cc2)C1 [Compound 2, (S)-((4-(3-(3-cyanoazetidin-1-yl)-2-(4-((4-(morpholinomethyl)phenyl)ethynyl)phenyl)propyl)-6-oxo-1,6-dihydropyrimidin-5-yl)oxy)methyl dihydrogen phosphate] | statistically significant reductions in bacterial burden in kidney | statistically significant reductions in bacterial burden in urine | 5.15 × 10^5 CFU/mL | 2.52 × 10^3 CFU/mL | 4.69 × 10^4 CFU/mL | 1.17 × 10^6 CFU/mL | 9.67 × 10^2 CFU/mL | 2.73 × 10^4 CFU/mL | 2.82 × 10^5 CFU/mL | 3.81 × 10^2 CFU/mL | 3.41 × 10^3 CFU/mL | statistically significant reductions in bacterial burden in urine | reductions in bacterial burden in bladder | statistically significant reductions in bacterial burden in kidney | efficacious | ≥ 3000 | milky suspensions | appearance after sonication (Kinetic solubility; 20, 40, and 50 mg/mL in 10 mM PBS, sonication in 40° C. water bath for 30 min): no change in appearance; appearance after treatment with 1M HCL (Kinetic solubility; 20, 40, and 50 mg/mL, final pH of 4, 10 seconds of vortexing): Clear solutions; appearance after addition of 1M NaOH (Kinetic solubility; 20, 40, and 50 mg/mL, final pH of 7, 10 seconds of vortexing): clear solutions
N#CC1CN(C[C@@H](Cc2nc[nH]c(=O)c2OP(=O)(O)O)c2ccc(C#Cc3ccc(CN4CCOCC4)cc3)cc2)C1 [Compound 1, (S)-4-(3-(3-cyanoazetidin-1-yl)-2-(4-((4-(morpholinomethyl)phenyl)ethynyl)phenyl)propyl)-6-oxo-1,6-dihydropyrimidin-5-yl dihydrogen phosphate] | statistically significant reductions in bacterial burden in kidney | statistically significant reductions in bacterial burden in urine | 2.64 × 10^6 CFU/mL | 4.74 × 10^4 CFU/mL | 2.93 × 10^5 CFU/mL | 5.05 × 10^5 CFU/mL | 5.24 × 10^2 CFU/mL | 9.40 × 10^3 CFU/mL | 1.81 × 10^5 CFU/mL | 4.04 × 10^2 CFU/mL | 8.73 × 10^3 CFU/mL | statistically significant reductions in bacterial burden in urine | reductions in bacterial burden in bladder | statistically significant reductions in bacterial burden in kidney | efficacious | ≥ 3000 | clear solutions | Bladder Terminal Burden (K. pneumoniae BAA-1705; 11.5 mg/kg/dose IV): BLoD; Kidney Terminal Burden (K. pneumoniae BAA-1705; 11.5 mg/kg/dose IV): 1.72 × 10^1 CFU/mL; Urine Terminal Burden (K. pneumoniae BAA-1705; 11.5 mg/kg/dose IV): 2.15 × 10^1 CFU/mL; Bladder Terminal Burden (K. pneumoniae BAA-1705; 35 mg/kg/dose IV): BLoD; Kidney Terminal Burden (K. pneumoniae BAA-1705; 35 mg/kg/dose IV): BLoD; Urine Terminal Burden (K. pneumoniae BAA-1705; 35 mg/kg/dose IV): BLoD; Bladder Terminal Burden (K. pneumoniae BAA-1705; 69.5 mg/kg/dose IV): 4.58 × 10^0 CFU/mL; Kidney Terminal Burden (K. pneumoniae BAA-1705; 69.5 mg/kg/dose IV): BLoD; Urine Terminal Burden (K. pneumoniae BAA-1705; 69.5 mg/kg/dose IV): BLoD; Bladder Terminal Burden (K. pneumoniae BAA-1705; 104.5 mg/kg/dose PO): BLoD; Kidney Terminal Burden (K. pneumoniae BAA-1705; 104.5 mg/kg/dose PO): BLoD; Urine Terminal Burden (K. pneumoniae BAA-1705; 104.5 mg/kg/dose PO): 2.51 × 10^0 CFU/mL; bacterial loads in kidney (K. pneumoniae BAA-1705; K. pneumoniae BAA-1705, mice, all routes of administration): below the limit of detection; concentration at 4 h (Pharmacokinetics in rats): < 100 ng/mL; Bladder Terminal Burden (E. coli UTI 89; [5]): 9.57 × 10^4 CFU/mL; Kidney Terminal Burden (E. coli UTI 89; [5]): 1.28 × 10^2 CFU/mL; Urine Terminal Burden (E. coli UTI 89; [5]): 3.59 × 10^3 CFU/mL; solubility after storage (Kinetic solubility; 20, 40, and 50 mg/mL in 10 mM PBS pH 7, storage at 4° C. for 20 hours): remained soluble; concentration at 6 h (Pharmacokinetics in dogs): < 100 ng/mL
O=C(O)c1cn(C2CC2)c2cc(N3CCNCC3)c(F)cc2c1=O [Ciprofloxacin, reference compound] |  |  |  |  |  | 2.85 × 10^5 CFU/mL | 1.88 × 10^2 CFU/mL | 5.07 × 10^2 CFU/mL |  |  |  |  |  |  |  |  |  | Bladder Terminal Burden (K. pneumoniae BAA-1705; 10 mg/kg/dose IV): 2.27 × 10^1 CFU/mL; Kidney Terminal Burden (K. pneumoniae BAA-1705; 10 mg/kg/dose IV): 1.88 × 10^3 CFU/mL; Urine Terminal Burden (K. pneumoniae BAA-1705; 10 mg/kg/dose IV): 1.78 × 10^2 CFU/mL; Bladder Terminal Burden (K. pneumoniae BAA-1705; 10 mg/kg/dose PO): 4.05 × 10^2 CFU/mL; Kidney Terminal Burden (K. pneumoniae BAA-1705; 10 mg/kg/dose PO): 2.59 × 10^4 CFU/mL; Urine Terminal Burden (K. pneumoniae BAA-1705; 10 mg/kg/dose PO): 9.71 × 10^2 CFU/mL
